Laboratory results: ChEMBL document CHEMBL1201862, “PubChem BioAssay data set” (2004)
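Protocol summary: plate cells (96-well), add compound at 5 concentrations, incubate 48 h, interpolate endpoints linearly. GI50: concentration for 50% inhibition of growth.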 Calls of active or inactive are those of the source. Rule as the data show it: active = GI50 up to about 1.1 µM and inactive = higher. Peptide text beside a SMILES is read from it. * marks the point of attachment. Cbz = O=C(OCc1ccccc1)*

Legend:
Assay in all cases: NCI anticancer screen, dose series, 48 h
786-0 = tested on: 786-0
ACHN = tested on: ACHN
BT-549 = tested on: BT-549
CAKI-1 = tested on: CAKI-1
COLO 205 = tested on: COLO 205
DU-145 = tested on: DU-145
HCT-116 = tested on: HCT-116
HCT-15 = tested on: HCT-15
KM12 = tested on: KM12
MDA-N = tested on: MDA-N
Malme-3M = tested on: Malme-3M
NCI-H226 = tested on: NCI-H226
OVCAR-3 = tested on: OVCAR-3
OVCAR-8 = tested on: OVCAR-8
RPMI-8226 = tested on: RPMI-8226
SF-268 = tested on: SF-268
SF-295 = tested on: SF-295
SW-620 = tested on: SW-620
UACC-257 = tested on: UACC-257

SMILES | GI50 (786-0) | GI50 (ACHN) | GI50 (BT-549) | GI50 (CAKI-1) | GI50 (COLO 205) | GI50 (DU-145) | GI50 (HCT-116) | GI50 (HCT-15) | GI50 (KM12) | GI50 (MDA-N) | GI50 (Malme-3M) | GI50 (NCI-H226) | GI50 (OVCAR-3) | GI50 (OVCAR-8) | GI50 (RPMI-8226) | GI50 (SF-268) | GI50 (SF-295) | GI50 (SW-620) | GI50 (UACC-257)
O=c1c(SSc2coc3cc(F)ccc3c2=O)coc2cc(F)ccc12 | 10 µM (inactive) | 6.92 µM (inactive) | > 100 µM (inactive) | 20.1 µM (inactive) | 17.4 µM (inactive) | 47.3 µM (inactive) | 5.14 µM (inactive) | 13.8 µM | 8.95 µM (inactive) | 13.5 µM (inactive) | 29.6 µM (inactive) | > 100 µM (inactive) | 21.6 µM (inactive) | 7.78 µM (inactive) | 22.3 µM (inactive) | 26.3 µM (inactive) | 6.68 µM (inactive) | 17.7 µM (inactive) | 21.8 µM (inactive)
O=C1C2SC34c5c2c2ccccc2n5CCC3CCCN14 (centres undefined) | 27.5 µM (inactive) | > 100 µM (inactive) | > 100 µM (inactive) | 48.4 µM (inactive) | > 100 µM (inactive) | > 100 µM (inactive) | > 100 µM (inactive) | > 100 µM | > 100 µM (inactive) | > 100 µM (inactive) | > 100 µM (inactive) | > 100 µM (inactive) | 65 µM (inactive) | 83.8 µM (inactive) | > 100 µM (inactive) | 39.4 µM (inactive) | 55.2 µM (inactive) | > 100 µM (inactive) | 15 µM (inactive)
CC(C)(/N=N/C(C)(C)C1=NCCN1)C1=NCCN1 | > 71.4 µM (inactive) | > 100 µM (inactive) | > 100 µM (inactive) | > 83.9 µM (inactive) | > 100 µM (inactive) | > 100 µM (inactive) | > 100 µM (inactive) | > 100 µM | > 100 µM (inactive) | > 100 µM (inactive) | > 100 µM (inactive) | > 100 µM (inactive) | > 100 µM (inactive) | > 100 µM (inactive) |  | > 100 µM (inactive) | > 100 µM (inactive) | > 100 µM (inactive) | > 100 µM (inactive)
CS(=O)(=O)Nc1ccc(N2Cc3c[nH]c4ccc5nccc2c5c34)cc1 | 14.3 µM (inactive) | 28.6 µM (inactive) | 21.8 µM (inactive) | 31.5 µM (inactive) | 11.9 µM (inactive) | 18.3 µM (inactive) | 9.14 µM (inactive) | > 100 µM | 17.6 µM (inactive) | 15.7 µM (inactive) | 4.54 µM (inactive) | 15.4 µM (inactive) | 9.98 µM (inactive) | 13.7 µM (inactive) | 20.3 µM (inactive) |  | 27.7 µM (inactive) | 15 µM (inactive) | 14.5 µM (inactive)
CCOC(=O)C(C)NC(=O)C(C)NC(=O)C(C)NC(=O)C(C)NC(=O)C(C)NC(=O)C(C)NC(=O)C(C)NC(=O)OCc1ccccc1 (centres undefined) (Cbz-AAAAAAA-OEt; configuration not given here) | > 100 µM (inactive) | > 100 µM (inactive) | > 100 µM (inactive) | > 100 µM (inactive) | > 100 µM (inactive) | > 100 µM (inactive) | > 100 µM (inactive) | > 100 µM | > 100 µM (inactive) | > 100 µM (inactive) | > 100 µM (inactive) | > 100 µM (inactive) | > 100 µM (inactive) | > 100 µM (inactive) | > 100 µM (inactive) | > 100 µM (inactive) | > 100 µM (inactive) | > 100 µM (inactive) | 
Nc1nc(Cl)c(Cl)c(NCC2(O)CCC2)n1 | > 100 µM (inactive) | > 100 µM (inactive) | 44.6 µM (inactive) | 16.1 µM (inactive) |  | > 100 µM (inactive) | 57.3 µM (inactive) | 38.9 µM | > 100 µM (inactive) | > 100 µM (inactive) | 62.7 µM (inactive) | 23.6 µM (inactive) | 51.2 µM (inactive) | 92.9 µM (inactive) | 42 µM (inactive) | > 100 µM (inactive) | 43.9 µM (inactive) | > 100 µM (inactive) | > 100 µM (inactive)
CCCCCCC(CCl)c1sc(-c2csc(CCNC(=O)OC(C)(C)C)n2)nc1C(=O)OC (centres undefined) | 19.3 µM (inactive) | 23.3 µM (inactive) | 18.5 µM (inactive) | 29 µM (inactive) | 35.6 µM (inactive) | 33.7 µM (inactive) | 15.5 µM (inactive) | 14.1 µM | 17.8 µM (inactive) | 26.7 µM (inactive) |  |  | 21.9 µM (inactive) | 24.6 µM (inactive) | 9.68 µM (inactive) | 20.3 µM (inactive) | 32.2 µM (inactive) | 36 µM (inactive) | 27.1 µM (inactive)
CO/N=C(\C(=O)Nn1cn[n+](CC(=O)[O-])c1)c1csc(N)n1 | > 10 µM (inactive) | > 10 µM (inactive) | > 10 µM (inactive) | > 10 µM (inactive) | > 10 µM (inactive) | > 10 µM (inactive) | > 10 µM (inactive) | > 10 µM | > 10 µM (inactive) | > 10 µM (inactive) |  |  |  | > 10 µM (inactive) | > 10 µM (inactive) | > 10 µM (inactive) |  | > 10 µM (inactive) | > 10 µM (inactive)
COc1ccc2c(c1)OCC1Cc3cccc(OC)c3OC21 (centres undefined) | > 100 µM (inactive) |  | 26.9 µM (inactive) | > 100 µM (inactive) | 41.6 µM (inactive) | > 100 µM (inactive) | 45.1 µM (inactive) | 48 µM | 65 µM (inactive) | 50.5 µM (inactive) | 70.8 µM (inactive) | 67.3 µM (inactive) | 51.2 µM (inactive) | 45.8 µM (inactive) | 36.9 µM (inactive) | > 100 µM (inactive) | 64.6 µM (inactive) | 60.3 µM (inactive) | 36.1 µM (inactive)
COC(=O)[C@@H]1[C@H](OC(C)=O)CCC2[C@@]3(C[C@@H](c4ccoc4)O[C@@H]3OC)[C@H](C)CC[C@]21C(=O)OC (some centres undefined) | > 25 µM (inactive) | > 25 µM (inactive) | > 25 µM (inactive) | > 25 µM (inactive) | > 25 µM (inactive) | > 25 µM (inactive) | > 25 µM (inactive) | > 25 µM | > 25 µM (inactive) | > 25 µM (inactive) |  | > 25 µM (inactive) | > 25 µM (inactive) | > 25 µM (inactive) | > 25 µM (inactive) | > 25 µM (inactive) | > 25 µM (inactive) | > 25 µM (inactive) | > 25 µM (inactive)
CC(=O)Oc1ccc2[nH]c3c(C)c4cccc-4ccc3c2c1 | 1.85 µM (inactive) | 1.79 µM (inactive) | 2.34 µM (inactive) | 1.86 µM (inactive) |  | 3.27 µM (inactive) | 2.07 µM (inactive) | 2.24 µM | 2.44 µM (inactive) | 2.36 µM (inactive) | 1.78 µM (inactive) | 1.38 µM (inactive) | 1.62 µM (inactive) | 2.1 µM (inactive) | 3.03 µM (inactive) | 2.02 µM (inactive) | 2.02 µM (inactive) | 3.7 µM (inactive) | 1.92 µM (inactive)
O=C(O)CN1C(=O)c2ccc(NC(=O)C(=O)O)cc2S1(=O)=O | > 100 µM (inactive) | > 100 µM (inactive) | > 100 µM (inactive) | > 100 µM (inactive) | > 100 µM (inactive) | > 100 µM (inactive) | > 100 µM (inactive) | > 100 µM | > 100 µM (inactive) | > 100 µM (inactive) | > 100 µM (inactive) | > 100 µM (inactive) |  |  | > 100 µM (inactive) | > 100 µM (inactive) | > 100 µM (inactive) | > 100 µM (inactive) | > 100 µM (inactive)
CCc1ccccc1NC(=O)C(C#N)C1=C(Cl)C(=O)c2ccccc2C1=O (centres undefined) | 15.5 µM (inactive) | 15.2 µM (inactive) | 21.9 µM (inactive) | 20.3 µM (inactive) | 15.7 µM (inactive) | 17.4 µM (inactive) | 13 µM (inactive) | 14.7 µM | 13.5 µM (inactive) |  | 6.07 µM (inactive) | 15.3 µM (inactive) | 5.69 µM (inactive) | 17.9 µM (inactive) | 12.4 µM (inactive) | 21.7 µM (inactive) | 20.9 µM (inactive) | 18.4 µM (inactive) | 16.4 µM (inactive)
O=C1/C(=C/c2c(Cl)[nH]c3ccccc23)c2ccccc2N1c1ccccc1 | 6.56 µM (inactive) | 7.01 µM (inactive) | 3.29 µM (inactive) | 8.3 µM (inactive) | 1.79 µM (inactive) | 7.43 µM (inactive) | 4.6 µM (inactive) | 3.14 µM | 3.86 µM (inactive) | 1.85 µM (inactive) | 5.79 µM (inactive) |  | 1.79 µM (inactive) | 4.35 µM (inactive) | 2.92 µM (inactive) | 5.52 µM (inactive) | 2.44 µM (inactive) | 5.15 µM (inactive) | 11.6 µM (inactive)
COc1ccc2nc(-c3ccccc3)c(=O)[nH]c2c1 | > 100 µM (inactive) | > 100 µM (inactive) | > 100 µM (inactive) | > 100 µM (inactive) | > 100 µM (inactive) | > 100 µM (inactive) | > 100 µM (inactive) | > 100 µM |  | > 100 µM (inactive) | > 100 µM (inactive) | > 100 µM (inactive) | > 100 µM (inactive) | > 100 µM (inactive) | > 100 µM (inactive) | > 100 µM (inactive) | > 100 µM (inactive) | > 100 µM (inactive) | > 100 µM (inactive)
CC(C)(Oc1ccc(Cl)cc1)C(=O)N(C(=O)N1CCCCC1)c1ccccc1 | 13.4 µM (inactive) | 14.9 µM (inactive) | 15.4 µM (inactive) | 14.4 µM (inactive) | 17.4 µM (inactive) | 14.7 µM (inactive) | 5.32 µM (inactive) | 6.28 µM | 5.87 µM (inactive) | 24.5 µM (inactive) | 12 µM (inactive) | 17.6 µM (inactive) | 23.9 µM (inactive) | 14.1 µM (inactive) | 7.55 µM (inactive) | 20.1 µM (inactive) |  | 12.9 µM (inactive) | 
